Publication PMC11009276, “Design, synthesis, biological assessment and molecular modeling studies of novel imidazothiazole-thiazolidinone hybrids as potential anticancer and anti-inflammatory agents” (Scientific Reports, 2024)
Where two headings read alike, the source gives them in different places.

Legend:
[1] = tested on: HCT116 human colorectal cancer cell line; assay: MTT cytotoxicity assay, HCT116; conditions: HCT-116, 72 h, read-out: IC50 (µM) (Mean ± SD) HCT116
Protocol: (§1) All the synthesized imidazothiazole derivatives linked with thiazolidinone moiety (4a-g and 5a-d, Fig. 4) were evaluated for their in- vitro anticancer activities against three selected human cancer cell lines namely non-small lung (A549), breast (MCF7) and colorectal (HCT116) and one normal human embryonic kidney cell line (HEK293) using the 3‐(4,5‐Dimethylthiazol‐2‐yl)-2,5‐Diphenyltetrazolium Bromide (MTT) assay method. […] Compounds were tested against selected cancer cell lines namely A549 (Lung), MCF-7(Breast) HCT116 (Colon), normal human embryonic kidney cell line (HEK293) and procured from National Centre for Cell Science Complex (NCCS) Pune University, India. Into a 96 well plate, cells were seeded into each well (3 × 10^3 cells/ per well), the plate were incubated for 24 h, after that the culture medium was discarded and replaced with fresh medium along with our newly synthesized test compounds in different concentration (10, 20, 40 and 80 µM) followed by incubation for 72 h. […] Finally, each well is treated with DMSO (100 µL) and swirled to dissolve the dark crystals of formazan. ELISA reader was used to measure the absorbance at 570 nm. The experiment was repeated three times; Graph pad prism and excel are used to calculate the IC50 values[51].

[2] = tested on: HEK293 human embryonic kidney cell line; assay: MTT cytotoxicity assay, normal cell line HEK293; assay type: cell-based; conditions: read-out: IC50 (Mean ± SD) HEK293
Protocol: All the synthesized imidazothiazole derivatives linked with thiazolidinone moiety (4a-g and 5a-d, Fig. 4) were evaluated for their in- vitro anticancer activities against three selected human cancer cell lines namely non-small lung (A549), breast (MCF7) and colorectal (HCT116) and one normal human embryonic kidney cell line (HEK293) using the 3‐(4,5‐Dimethylthiazol‐2‐yl)-2,5‐Diphenyltetrazolium Bromide (MTT) assay method. […]. […].
Cytotoxicity study of the newly synthesized derivatives 4a-g and 5a-d was performed by MTT colorimetric assay method. […] Compounds were tested against selected cancer cell lines namely A549 (Lung), MCF-7(Breast) HCT116 (Colon), normal human embryonic kidney cell line (HEK293) and procured from National Centre for Cell Science Complex (NCCS) Pune University, India. Into a 96 well plate, cells were seeded into each well (3 × 10^3 cells/ per well), the plate were incubated for 24 h, after that the culture medium was discarded and replaced with fresh medium along with our newly synthesized test compounds in different concentration (10, 20, 40 and 80 µM) followed by incubation for 72 h. Further, the media of each well of the plates were aspirated with the addition of 100 µL MTT solution followed by incubation for the next 5 h at 37 °C. Finally, each well is treated with DMSO (100 µL) and swirled to dissolve the dark crystals of formazan. ELISA reader was used to measure the absorbance at 570 nm. The experiment was repeated three times; Graph pad prism and excel are used to calculate the IC50 values.

[3] = molecular target: Bovine serum albumin (BSA) (Bos taurus, UniProt P02769); assay: BSA (protein albumin) denaturation inhibition assay; conditions: for BSA denaturation inhibition assay Mean absorbance ± SEM: 660 nm; for inhibition at 100 µg/mL: read-out: BSA denaturation inhibition assay % inhibition of denaturation, 100 μg/mL
Bovine serum albumin (BSA), sequence (P02769 25-607): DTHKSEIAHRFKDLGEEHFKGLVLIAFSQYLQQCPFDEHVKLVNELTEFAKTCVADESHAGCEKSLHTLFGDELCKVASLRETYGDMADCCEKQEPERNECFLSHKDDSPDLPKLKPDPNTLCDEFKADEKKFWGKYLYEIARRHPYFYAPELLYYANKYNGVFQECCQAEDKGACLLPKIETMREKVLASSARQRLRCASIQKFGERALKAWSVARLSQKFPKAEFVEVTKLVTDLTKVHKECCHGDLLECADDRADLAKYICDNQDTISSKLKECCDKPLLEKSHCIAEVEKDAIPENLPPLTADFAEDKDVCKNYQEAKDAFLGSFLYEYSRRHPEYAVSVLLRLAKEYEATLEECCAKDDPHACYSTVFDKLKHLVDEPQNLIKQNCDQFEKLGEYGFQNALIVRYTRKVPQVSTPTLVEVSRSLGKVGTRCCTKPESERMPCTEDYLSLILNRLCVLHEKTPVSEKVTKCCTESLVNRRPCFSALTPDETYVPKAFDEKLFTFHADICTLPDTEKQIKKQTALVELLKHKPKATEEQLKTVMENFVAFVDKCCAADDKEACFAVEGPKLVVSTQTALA
Protocol: All the synthesized compounds were evaluated for anti-inflammatory activity by the inhibition of the albumin denaturation technique. […] All the test solutions (1 mL, 100 μg/mL) were then mixed with 1 mL of albumin solution (1%) and phosphate buffer saline and then incubated for around 15 min at 27 ± 1 °C. Further, the denaturation of protein was induced by keeping the reaction mixture on the water bath for 10 min and maintaining the temperature at 60 °C. Once the solution gets cooled, the turbidity was measured using UV–Visible spectrophotometer at 660 nm.

[4] = molecular target: EGFR kinase (Homo sapiens, UniProt P00533); assay: In vitro EGFR kinase inhibitory assay (ELISA, phospho-EGFR in A549 cell lysates)
EGFR kinase, sequence (P00533 25-1210): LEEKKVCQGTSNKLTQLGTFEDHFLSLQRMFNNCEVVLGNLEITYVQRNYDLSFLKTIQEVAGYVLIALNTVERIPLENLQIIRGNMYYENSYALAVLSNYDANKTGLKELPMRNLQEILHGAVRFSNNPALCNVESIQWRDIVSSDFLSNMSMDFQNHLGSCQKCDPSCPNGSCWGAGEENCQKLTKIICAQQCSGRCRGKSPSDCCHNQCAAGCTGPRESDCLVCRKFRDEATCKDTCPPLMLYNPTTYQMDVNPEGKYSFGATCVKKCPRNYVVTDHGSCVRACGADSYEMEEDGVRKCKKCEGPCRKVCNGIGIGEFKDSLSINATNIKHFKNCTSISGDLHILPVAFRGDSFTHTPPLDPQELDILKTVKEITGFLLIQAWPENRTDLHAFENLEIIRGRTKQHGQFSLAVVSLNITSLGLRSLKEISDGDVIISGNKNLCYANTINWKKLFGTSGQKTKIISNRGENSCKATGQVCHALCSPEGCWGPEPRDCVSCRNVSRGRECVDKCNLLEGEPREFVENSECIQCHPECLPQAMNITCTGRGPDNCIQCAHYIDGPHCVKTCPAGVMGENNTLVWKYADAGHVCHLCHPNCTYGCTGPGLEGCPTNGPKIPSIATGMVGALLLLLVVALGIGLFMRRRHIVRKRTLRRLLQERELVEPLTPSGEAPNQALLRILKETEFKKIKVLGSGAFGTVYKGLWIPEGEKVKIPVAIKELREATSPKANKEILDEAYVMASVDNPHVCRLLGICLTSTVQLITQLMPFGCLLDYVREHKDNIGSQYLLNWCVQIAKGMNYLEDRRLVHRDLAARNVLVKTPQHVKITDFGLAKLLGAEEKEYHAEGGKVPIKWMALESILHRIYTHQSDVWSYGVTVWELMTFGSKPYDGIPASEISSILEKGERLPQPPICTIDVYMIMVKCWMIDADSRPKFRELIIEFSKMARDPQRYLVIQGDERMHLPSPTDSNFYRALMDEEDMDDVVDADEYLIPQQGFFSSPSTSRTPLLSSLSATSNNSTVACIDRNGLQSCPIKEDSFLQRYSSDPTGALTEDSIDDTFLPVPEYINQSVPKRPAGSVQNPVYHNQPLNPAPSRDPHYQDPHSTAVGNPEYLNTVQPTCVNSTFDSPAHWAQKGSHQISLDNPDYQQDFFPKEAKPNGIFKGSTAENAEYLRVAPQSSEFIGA
Protocol: For all the synthesized compounds, the overall methodology of a spectrophotometric assay for the inhibition of EGFR tyrosine kinase activity was evaluated in human A549 cells, which expressed high levels of EGFR protein. […] Cells were then washed with cold PBS, lysed in 0.2 ml/well of HNTG buffer (50 mM HEPES [(4‐(2‐hydroxyethyl)‐piperazineethanesulfonic acid; pH 7.5], 150 mM NaCl, 1.5 mM MgCl, 10% glycerol, 1% Triton X‐100, 0.5 mM sodium fluoride, 2 g/ml aprotinin, 2 g/ml pepstatin A, 1 mM sodium orthovanadate, 2 g/ml leupeptin, 1 mM phenyl methyl sulfonyl fluoride) for 10 min, and the lysates were collected as the supernatant fraction after a 12‐min centrifugation at 15,000 g. The specific EGFR concentration was measured by ELISA assay. Briefly, the wells of ELISA plates were coated with supernatant fraction and incubated at 4 °C overnight After washing three times with buffer (20 mM PBS, pH 7.2 containing 0.05% Tween‐20), the wells were blocked with 1% BSA for 2–3 h at room temperature. Further, the plate was washed and then mouse serum at 1,000‐fold dilution was added, followed by washing and incubation with phospho‐EGFR antibody (Invitrogen) at 4 °C overnight. The wells were washed and incubated with substrate solution (o‐phenylenediamine dihydrochloride), for 30 min, and the absorbance read on an ELISA plate reader at 490 nm[52]. %Inhibition=mean OD of untreated group-mean OD of treated group/mean OD of untreated group)×100.

[5] = tested on: MCF7 human breast cancer cell line; assay: MTT cytotoxicity assay, MCF7; conditions: MCF7, 72 h, read-out: IC50 (µM) (Mean ± SD) MCF7
Protocol: as §1

[6] = tested on: A549 (Lung) cancer cell line; assay: MTT cytotoxicity assay, A549; conditions: Homo sapiens, A549, 72 h, read-out: IC50 (µM) (Mean ± SD) A549
Protocol: as §1

[7] = tested on: gastric mucosa tissue of rats; assay: Lipid peroxidation in gastric mucosa; assay type: in vivo, rat; conditions: oral 0.0942 mmol/kg
Protocol: The compounds screened for ulcerogenic potential were also analysed for lipid peroxidation. Lipid peroxidation is measured as nmolMDA/100 mg of gastric mucosa tissue. […] Thus, it was concluded that protection of gastric mucosa might be related to the inhibition of lipid peroxidation.
Lipid peroxidation in the gastric mucosa was determined using the reported method by Ohkawa H. et al.[61]. The gastric mucosa of the glandular area was scraped off using glass slides after the stomach had been examined for ulcers. Gastric mucosa was weighed (100 mg) and homogenised in 1.8 cm^3 of ice-cold solution of KCl (1.15%). The homogenate is further added with 0.2 cm^3 of 8.1% sodium dodecyl sulphate (SDS), 1.5 cm^3 of acetate buffer, and 1.5 cm^3 of 0.8% thiobarbituric acid. After adding all buffers, the mixture was kept for incubation for 60 min over water bath, maintaining the temperature of the water bath at 95 °C. Later, the mixture was allowed to cool and then extracted with a freshly prepared mixture of n-butanol and pyridine (15:1 v/v), the organic layer obtained was centrifuged at 3000 rpm for about 10 min. The organic layer was separated out and visualised on UV–visible spectrophotometer. Concentration was measured using the following formula: Concentration=Absorbance×volume×109÷1.56×10^5×1000
Results obtained were expressed as nmol MDA/100 mg tissue and extinction coefficient (1.56 × 10^5) cm^-1 M^-1.

[8] = tested on: carrageenan-induced rat hind paw edema; assay: Carrageenan-induced rat paw edema inhibition assay; assay type: in vivo; conditions: after 4 h; for % inhibition (paw edema) / Increase in Paw volume SEM: oral 0.0314 mmol/kg; for Increase in Paw volume SEM: n = 6; for Activity relative to standard drug: relative to diclofenac sodium
Protocol: The anti-inflammatory efficacy of the newly synthesised compounds was assessed using a carrageenan-induced rat hind paw edema technique The animals were divided into groups of six at random, fasted for 24 h before to the experiment, and given free access to water. 0.5% CMC solution was given to the control group only. […] One hour after the administration of the test compounds and the reference drug, 0.1 mL of a 1% carrageenan solution in saline was subcutaneously injected into the subplantar area of the right hind paw of each rat. The right hind paw volume was measured using a Digital Plethysmometer PLM-01 Plus (Orchid Scientifics and Innovatives India Pvt. Ltd., Mumbai, India) at 3 and 4 h after carrageenan therapy. The following calculation was used to compute the percent edema inhibition from the mean effect in the treated and control animals: Percent edema inhibition=Vc-Vt/Vc×100 where Vc denotes the mean increase in paw volume in the control group of rats and Vt denotes the mean increase in paw volume in rats treated with test chemicals. After a 15-day washout period, the same group of rats utilised for the anti-inflammatory activity were employed for the ulcerogenic activity.

[9] = tested on: gastric mucosa of rats; assay: Ulcerogenic activity; assay type: in vivo, rat; conditions: oral 0.0942 mmol/kg
Protocol: The Compounds (4a-d, 5a-b) which were found potent as anti-inflammatory agents were further screened for their ulcerogenic risk. The compounds and the standard drug were tested at an oral dose of 0.0942 mmol/kg.
Animals were divided into different groups consisting of 6 rats per group. […] The control group received 0.5% of the carboxymethylcellulose (CMC) solution. […] 24 h before the test compounds were administered. After receiving the medication, the rats were given regular food for 17 h and then sacrificed. The stomach was taken out and opened along its greater curvature before being gently cleansed by dipping it in normal saline and then washing it with distilled water. The mucosal injury/damage was examined thoroughly using a magnifying glass. The mucosal injury in each stomach was scored using the following score system: 0.5: Redness; 1.0: Spot Ulcers; 1.5: Hemorrhagic Streaks; 2.0: Ulcers > 3 but 5, 3.0: Ulcers > 5. The severity index (SI) of stomach mucosal injury was calculated as the mean score of each treated group minus the mean score of the control group.

[10] = tested on: carrageenan-induced paw edema inflammation; set-up: method as in earlier work; conditions: albino rats; ref 50 (Saliyeva et al.); cited from earlier work
[11] = HEK293, MTT, 72 h, normal cell line

| Structure (SMILES) | IC50 [1] | IC50 [2, 11] | BSA denaturation inhibition assay Mean absorbance ± SEM ([3]; 100 μg/mL) | inhibition at 100 µg/mL [3] | IC50 [4] | IC50 [5] | IC50 [6] | melting point | Lipid peroxidation [7] | % inhibition (paw edema) [8] | Increase in Paw volume SEM [8] | Activity relative to standard drug [8] | Mean ulcer severity index ± SEM [9] | IC50 ([2]; HEK293, 72 h) | % inhibition carrageenan-induced paw edema [10] | BSA denaturation inhibition assay % inhibition of denaturation ([3]; 100 μg/mL) |
| --- | --- | --- | --- | --- | --- | --- | --- | --- | --- | --- | --- | --- | --- | --- | --- | --- |
| COc1ccc(N2C(=O)C(C)SC2c2c(-c3ccccc3)nc3sccn23)cc1 (stereo not shown) [Compound 4g, 3-(4-Methoxyphenyl)-5-methyl-2-(6-phenylimidazo[2,1-b]thiazol-5-yl) thiazolidin-4-one] | 76.3 ± 5.66 µM | 164 ± 4.69 µM | 0.291 ± 0.011 | 62.1% | 46.5 ± 7.14 µM | 52.9 ± 1.65 µM | 70.1 ± 2.02 µM | 162 to 164 °C | – | – | – | – | – | – | – | – |
| O=C1CSC(c2c(-c3ccccc3)nc3sccn23)N1c1ccc(Br)cc1 (stereo not shown) [Compound 5b, 3-(4-Bromophenyl)-2-(6-phenylimidazo[2,1-b]thiazol-5-yl) thiazolidin-4-one] | 58.6 ± 4.51 µM | 105 ± 3.5 µM | 0.317 ± 0.003 | 76.6% | 33.1 ± 1.58 µM | 44.2 ± 0.85 µM | 35.5 ± 2.15 µM | 159 to 161 °C | 5.68 ± 0.071 Nmol MDA/100 mg tissue | 74.78% | 0.133 ± 0.008 | 93.10 | 1.000 ± 0.258 | – | – | – |
| C#Cc1cccc(Nc2ncnc3cc(OCCOC)c(OCCOC)cc23)c1 [Erlotinib, reference compound] | 12.5 ± 1.87 µM | – | – | – | – | 10.7 ± 5.65 µM | 8.34 ± 8.09 µM | – | – | – | – | – | – | 80.2 ± 1.3 µM | – | – |
| O=C(O)Cc1ccccc1Nc1c(Cl)cccc1Cl [Diclofenac sodium, reference compound] | – | – | – | – | – | – | – | – | – | 80.32% | – | – | – | – | 38.8% | – |
| O=C1CSC(c2c(-c3ccccc3)nc3sccn23)N1c1ccc(Cl)cc1 (stereo not shown) [Compound 5a, 3-(4-Chlorophenyl)-2-(6-phenylimidazo[2,1-b]thiazol-5-yl) thiazolidin-4-one] | 58.8 ± 3.14 µM | 117 ± 5.69 µM | 0.323 ± 0.002 | 79.9% | 30.1 ± 4.17 µM | 35.1 ± 1.25 µM | 42.7 ± 3.35 µM | 177 to 179 °C | 5.75 ± 0.102 Nmol MDA/100 mg tissue | 76.24% | 0.163 ± 0.018 | 94.92 | 1.083 ± 0.238 | – | – | – |
| COc1ccc(N2C(=O)CSC2c2c(-c3ccccc3)nc3sccn23)cc1 (stereo not shown) [Compound 5d, 3-(4-Methoxyphenyl)-2-(6-phenylimidazo[2,1-b]thiazol-5-yl) thiazolidin-4-one] | 65.2 ± 0.9 µM | 111.8 ± 0.25 µM | 0.287 ± 0.004 | 59.9% | 48 ± 1.97 µM | 38.1 ± 0.89 µM | 33.1 µM | 160 to 162 °C | – | – | – | – | – | – | – | – |
| Cc1ccc(N2C(=O)C(C)SC2c2c(-c3ccccc3)nc3sccn23)cc1 (stereo not shown) [Compound 4f] | 47.6 ± 8.97 µM | 147 ± 4.57 µM | 0.288 ± 0.002 | 60.6% | 49.7 ± 4.89 µM | 33.7 ± 0.84 µM | 40.22 ± 0.38 µM | 155 to 157 °C | – | – | – | – | – | – | – | – |
| CC1SC(c2c(-c3ccccc3)nc3sccn23)N(c2ccc(Cl)cc2Cl)C1=O (stereo not shown) [Compound 4d, 3-(2,4-Dichlorophenyl)-5-methyl-2-(6-phenylimidazo[2,1-b]thiazol-5-yl)thiazolidin-4-one] | 49.5 ± 7.14 µM | 181 ± 5.74 µM | 0.326 ± 0.002 | 82% | 36 ± 1.89 µM | 35.8 ± 1.03 µM | 31.8 ± 1.1 µM | 151 to 153 °C | 6.16 ± 0.135 Nmol MDA/100 mg tissue | 67.78% | – | 84.39 | 1.250 ± 0.281 | – | – | – |
| CC1SC(c2c(-c3ccccc3)nc3sccn23)N(c2ccc([N+](=O)[O-])cc2)C1=O (stereo not shown) [Compound 4e, 5-Methyl-3-(4-nitrophenyl)-2-(6-phenylimidazo[2,1-b]thiazol-5-yl) thiazolidin-4-one] | 89.9 ± 4.89 µM | 125 ± 5.8 µM | 0.289 ± 0.012 | 61.1% | 57.1 ± 0.38 µM | 43.6 ± 7.19 µM | 50.6 ± 0.7 µM | 187 to 189 °C | – | – | – | – | – | – | – | – |
| Cc1ccc(N2C(=O)CSC2c2c(-c3ccccc3)nc3sccn23)cc1 (stereo not shown) [Compound 5c] | 60 ± 6.44 µM | 109 ± 5.32 µM | 0.314 ± 0.003 | 79.9% | 29.3 ± 4.61 µM | 35.8 ± 4.61 µM | 34.2 ± 2.82 µM | 153 to 155 °C | – | – | – | – | – | – | – | 65.28% |
